Structures are written as SMILES.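 Test compounds were applied to cells in 96-well plates for 48 hours at 5 doses. GI50: concentration for 50% inhibition of growth.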 Activity calls are given as the source filed them. No stated cut-off is given here; in the data, active = GI50 up to about 1.1 µM and inactive = higher. Bounds are passed on as bounds.

Some test systems named below: COLO 205; HCT-15; HL-60; Hs-578T; LOX IMVI; M14; Malme-3M; NCI-H460; OVCAR-3; OVCAR-5; PC-3; RPMI-8226; SF-539; SK-MEL-2; SK-MEL-5; SNB-19; UACC-257; UACC-62; NCI-H226.
Assay in all cases: NCI-60 cell line screen, 48 h

On to `COC1OC(COC(=O)NCCCCC(=O)C(F)(F)F)C(O)C(O)C1O` (centres undefined), for which the GI50 is > 100 µM (inactive) with COLO 205; over 100 µM in the assay on HCT-15; > 100 µM (inactive) with HL-60; > 100 µM (inactive) with Hs-578T; > 100 µM (inactive) with LOX IMVI; > 100 µM (inactive) in the assay on M14. In addition, the GI50 in the assay with Malme-3M, with NCI-H460, with OVCAR-3, in the assay on OVCAR-5, with PC-3 and in the assay with RPMI-8226 was > 100 µM (inactive) throughout. In addition, the GI50 in the assay on SF-539, in the assay with SK-MEL-2, in the assay on SK-MEL-5, in the assay on SNB-19, with UACC-257 and with UACC-62 was > 100 µM (inactive) in each case.

On to `O=C(CBr)N1CCC2(CC1)SSC1(CCN(C(=O)CBr)CC1)S2`, for which the GI50 with COLO 205 was 0.368 µM (active); in the assay with HCT-15, 1.44 µM; in the assay on HL-60 it was 1.59 µM (inactive); with Hs-578T, 1.72 µM (inactive); with LOX IMVI, 0.064 µM (active); with M14 it was 1.53 µM (inactive). Moreover, the GI50 is 1.81 µM (inactive) with NCI-H460; 1.39 µM (inactive) in the assay with OVCAR-5; 1.84 µM (inactive) with PC-3; 0.356 µM (active) in the assay on RPMI-8226; 1.68 µM (inactive) in the assay with SF-539; 1.58 µM (inactive) in the assay on SNB-19. Further, the results for the GI50 in the assay on UACC-257 and in the assay on UACC-62 were 2.76 µM (inactive) and 1.47 µM (inactive), respectively.

Regarding `CCN(CC)c1ccc2cc(-c3csc(C)n3)c(=O)oc2c1`, the GI50 was > 100 µM (inactive) in the assay on COLO 205; over 100 µM with HCT-15; 95.3 µM (inactive) with HL-60; 25.7 µM (inactive) in the assay on Hs-578T; 67.3 µM (inactive) with LOX IMVI; > 100 µM (inactive) in the assay with M14. For the same compound, the GI50 in the assay on NCI-H226 was 57.4 µM (inactive); with NCI-H460 it was > 100 µM (inactive); with OVCAR-5, > 100 µM (inactive); with PC-3, 43.5 µM (inactive); with RPMI-8226 it was > 100 µM (inactive); in the assay on SF-539, 77.3 µM (inactive). The GI50 with SK-MEL-2 is > 100 µM (inactive); in the assay on SK-MEL-5 it was 37.9 µM (inactive); with SNB-19, 59.7 µM (inactive); in the assay on UACC-257 it was 77.8 µM (inactive); in the assay on UACC-62 it was 52.8 µM (inactive).

For `C=C(C)CNC(=S)N(N)c1ccc2ccccc2c1`, the GI50 was > 100 µM (inactive) in the assay on COLO 205; 5.01 µM in the assay on HCT-15; 57.3 µM (inactive) with HL-60; > 100 µM (inactive) in the assay on Hs-578T; > 100 µM (inactive) with LOX IMVI; > 100 µM (inactive) with M14. The GI50 with Malme-3M is > 100 µM (inactive); in the assay with NCI-H226, > 100 µM (inactive); with NCI-H460, > 100 µM (inactive); in the assay with OVCAR-3, 88.5 µM (inactive); in the assay with OVCAR-5, 27.7 µM (inactive); with PC-3, 61.1 µM (inactive). Moreover, the GI50 in the assay with RPMI-8226 is > 100 µM (inactive); in the assay on SF-539 it was > 100 µM (inactive); in the assay on SK-MEL-5, > 100 µM (inactive); in the assay with SNB-19 it was > 100 µM (inactive); in the assay on UACC-257, > 100 µM (inactive); in the assay on UACC-62 it was 23.9 µM (inactive).

On to `COc1cc(/C=C2\N=C(c3ccccc3)N(c3nc4cc(C)c(C)cc4s3)C2=O)ccc1O`, for which the GI50 was 40.1 µM (inactive) with COLO 205; 45.6 µM with HCT-15; 18.7 µM (inactive) in the assay with HL-60; 30.8 µM (inactive) in the assay with Hs-578T; 30.5 µM (inactive) with LOX IMVI; 47.4 µM (inactive) with M14. The GI50 was 27.4 µM (inactive) with NCI-H460; 23.7 µM (inactive) in the assay with OVCAR-3; 40.6 µM (inactive) in the assay on OVCAR-5; 30.3 µM (inactive) in the assay on PC-3; 20.8 µM (inactive) in the assay with RPMI-8226; 29.4 µM (inactive) in the assay on SF-539. The GI50 in the assay on SK-MEL-2 is 26.3 µM (inactive); in the assay on SK-MEL-5, 31.3 µM (inactive); with SNB-19 it was 74 µM (inactive); with UACC-257, 21.3 µM (inactive); in the assay with UACC-62 it was 26.6 µM (inactive).
